In patent publication US5843481A, “Treatment of proliferative disorders, metastasaes, and drug resistant tumors with vanadate compounds and derivatives or analogues thereof” (priority 1994, dated 1998):
“Also recorded” adds a separate entry of the source.

Assays:
fos = test: Northern blot analysis of fos mRNA expression in chondrocytes; format: cell-based, bovine; conditions: for expression of c-fos: stimulation, 1 hour, bovine chondrocytes, AA 3 μM; for fos expression in response to factors such as IL 1 or arachidonic acid: summary statement
Method: (§1) The cytokine interleukin 1 (IL 1) has been used to identify the intermediate second messengers which regulate the expression of fos and jun.
In order to elucidate this possibility, the effect of DPI on fos and jun mRNA levels induced by IL 1 was investigated. RNA from chondrocytes treated with IL 1 in the presence and absence of DPI were analyzed by Northern blot analysis using either fos or collagenase cDNA probes.
Since superoxides are rapidly converted to hydrogen peroxide in the cell by superoxide dismutase, whether hydrogen peroxide could mimic the effect of IL 1 in the induction of fos expression was investigated. RNA was extracted from chondrocytes (Kandel et al. supra) treated with H2 O2 for 30, 60 and 90 minutes and examined by Northern blot analysis using a fos cDNA probe.
(§2) Bovine articular chondrocytes were isolated and plated as previously described (Kandel R. A. et al. Biochim. Biophys. Acta. 1053, 130-134, 1990). In order to determine the effect of orthovanadate on IL 1 and PMA (phorbol ester) induced responses, chondrocytes were incubated with orthovanadate (100 μM) for 2 hours before stimulation with IL 1 (10 ng/ml) or PMA ([…]). collagenase production was determined by incubating chondrocytes for 24 hours with IL 1 or PMA and the cell conditioned medium was assayed for collagenase activity using an ELISA procedure as described previously (Kandel et al. supra) PLA2 activity was measured by incorporating ^3 H-arachidonic acid (^3 H-AA) into the cells and then incubating the cells with medium containing 1 mg/ml BSA, either alone or in the presence of IL 1 or PMA, for 10 min. as previously described (Conquer, J. A. […], Biochim. Biophys. Acta. 1134, 1-6). The amount of ^3 H-AA liberated into the supernatant was determined. To measure PGE2 production, chondrocytes were incubated for 6 hours in Ham's F12 medium, either alone or with IL 1 or PMA. The supernatant was analyzed by RIA using an antibody specific for PGE2 (Dr. S. A. Jones, Mount Sinai Hospital, Toronto, Can.). In order to examine the expression of c-fos and c-jun, chondrocytes were incubated for 1 hour in the presence of IL-1, PMA or AA (3 μM). Chondrocytes were washed in PBS and the total RNA extracted as previously described (Cruz. et al, 1991, Biochem. J. 277, 327-330). RNA samples were run on formaldehyde agarose gels and transferred to nylon membrane for northern analysis using cDNA probes for c-fos and c-jun.
Cells were also incubated as described above with 20 mM N-acetylcyateine for 20 min. and then incubated with IL 1 for an additional 1 or 12 hours. The RNA was extracted and examined by Northern blot analysis using cDNA probes for c-fos and collagenase.

jun = test: Northern blot analysis of jun mRNA expression in chondrocytes; format: cell-based, bovine; conditions: for expression of c-jun: stimulation, 1 hour, bovine chondrocytes, AA 3 μM; for jun expression in response to factors such as IL 1 or arachidonic acid: summary statement
From the text: as §1
(§3) Although IL 1 stimulated superoxide production, it was not known whether IL 1 induced fos and jun expression was dependent on the production of superoxides. In order to elucidate this possibility, the effect of DPI on fos and jun mRNA levels induced by IL 1 was investigated. RNA from chondrocytes treated with IL 1 in the presence and absence of DPI were analyzed by Northern blot analysis using either fos or collagenase cDNA probes. […] Similar data has been obtained for IL 1 induced jun expression. Furthermore, inhibition of fos and jun expression by DPI was sufficient to suppress IL 1 induced and constitutive collagenase expression.
as §2

cells = test: Combined effect of H2O2 and orthovanadate on cell toxicity; format: cell-based; conditions: 1 mM H2O2, 24 hours; FIG. 9
Method: If the orthovanadate induced formation of hydroxyl radicals is responsible for cell toxicity, then adding exogenous H2 O2 should enhance the effects of orthovanadate. Accordingly, cells were incubated in media alone or containing 1 mM H2 O2 or 10 μM orthovanadate or both for 24 hours. The cells were harvested and cell viability determined.

superoxides and H2O2 = test: Levels of superoxides and H2O2 in cells (conclusion of Example 1); format: cell-based, bovine; conditions: conclusion from results
Method: as §2, with “Chondrocytes were washed in PBS and the total RNA extracted as previously described (Cruz. et al, 1991, Biochem. J. 277, 327-330). RNA samples were run on formaldehyde agarose gels and transferred to nylon membrane for northern analysis using cDNA probes for c-fos and c-jun.” left out

MDAY-D2 [1] = test: MDAY-D2 tumor growth in mice, combination therapy, Example 7; format: in vivo
Method: Twenty mice were injected subcutaneously with 2×10^5 cells on Day 1. At day 4, the mice were divided into four groups of five mice. Group one (control) received subcutaneous injections of 50 μl of water. Group two received daily intraperitoneal injections of 50 μl of 250 mM N-acetylcysteine. Group three received daily subcutaneous injections of 50 μl of 10 mg/ml of orthovanadate. Group four received daily intraperitoneal injections of 50 μl of […] N-acetylcysteine and 20 minutes later received 50 μl of subcutaneous injection of 50 μl of 10 mg/ml of orthovanadate. On day 10 the treatment was stopped. The animals were sacrificed on Day 13 and analyzed for tumor growth.

collagenase [2] = test: Northern blot analysis of collagenase mRNA expression in chondrocytes; format: cell-based, bovine
From the text: as §1, §3
Cells were also incubated as described above with 20 mM N-acetylcyateine for 20 min. and then incubated with IL 1 for an additional 1 or 12 hours. The RNA was extracted and examined by Northern blot analysis using cDNA probes for c-fos and collagenase. N-acetylcysteine which is converted to GSH intracellularly was also found to reduce the levels of fos and collagenase expression in response to IL 1 (FIG. 5). Presumably the higher intracellular levels of GSH reduced H2 O2 and superoxide levels and suppressed the induction of fos and collagenase expression.

PLA2 = test: 3H-arachidonic acid release by chondrocytes (PLA2 activity); format: cell-based, bovine; conditions: stimulation, IL 1 10 ng/ml or PMA 100 mg/ml, 10 min
Method: as §2, with “Chondrocytes were washed in PBS and the total RNA extracted as previously described (Cruz. et al, 1991, Biochem. J. 277, 327-330). RNA samples were run on formaldehyde agarose gels and transferred to nylon membrane for northern analysis using cDNA probes for c-fos and c-jun.” left out

PGE2 = PGE2 production by chondrocytes (RIA); format: cell-based, bovine; conditions: stimulation, 6 hours, monolayer culture
Method: as §2, with “Chondrocytes were washed in PBS and the total RNA extracted as previously described (Cruz. et al, 1991, Biochem. J. 277, 327-330). RNA samples were run on formaldehyde agarose gels and transferred to nylon membrane for northern analysis using cDNA probes for c-fos and c-jun.” left out

collagenase [3] = test: Collagenase production by chondrocytes (ELISA of conditioned medium); format: cell-based, bovine; conditions: stimulation, 24 hours, monolayer culture
Method: as §2, with “Chondrocytes were washed in PBS and the total RNA extracted as previously described (Cruz. et al, 1991, Biochem. J. 277, 327-330). RNA samples were run on formaldehyde agarose gels and transferred to nylon membrane for northern analysis using cDNA probes for c-fos and c-jun.” left out

[4] = test system: KB8, KB8-5 and KB85-11 cells; conditions: background statement; cited from earlier work
[5] = test system: Chondrocytes (reactive oxygen intermediates; NADPH oxidase); test: FACS analysis of reactive oxygen intermediates/superoxide production in chondrocytes (dihydroxyrhodamine); format: cell-based, bovine; conditions: inhibition, FIG. 1
Method: Chondrocytes (i.e. bovine chondrocytes plated as described in Kandel R. A. et al. Biochim. Biophys. Acta. 1053, 130-134, 1990) were incubated with dihydroxyrhodamine for 5 min (DHR) or for 4 hours in the absence (-IL 1 ) or presence of IL 1 (+IL 1), or in the presence of both IL 1 and the NADPH inhibitor, diphenyl iodonium, (+IL 1, +DPI).

carcinogenesis = conditions: reported by G. Shklar et al.; cited from earlier work
MDAY-D2 cells = test: Viability of MDAY-D2 cells with different vanadyl compounds; format: cell-based, mouse; conditions: 0-50 μM, 48 hours; FIG. 8
Method: Three different forms of vanadyl compounds were examined for their effect on viability of cancer cell lines. MDAY-D2 cells were incubated in media containing 0-50 μM orthovanadate, vanadyl sulphate, or vanadyl hydroperoxide for 48 hours. The cells were harvested and the number of viable cells determined. […] Although there were slight differences in sensitivity, the overall cell death was similar.

mammary carcinogenesis = conditions: dietary; cited from earlier work
MDAY-D2 [6] = test: Liver metastases of MDAY-D2 cells in mice (histology), Example 8; format: in vivo
From the text: (§4) In order to examine the ability of vanadyl compounds to reduce tumor formation, growth and metastases, a specific animal model which allows investigation of all of these processes in the same animal was chosen. This model involves the injection of a metastatic haematopoietic cell line, MDAY-D2, into mice subcutaneously. These cells form a tumor at the site of injection and its size can be easily determined. In addition, these cells metastasize to the liver and metastases can be detected histologically after day 17 to 19. This model provides a very sensitive and reproducible approach to investigate the effect of vanadyl compounds on tumor growth and metastases.
Livers were removed from animals treated as described above and prepared for histological examination. FIG. 16 compares liver sections from untreated (C), orthovanadate (VO)(500 μg/day) and vanadyl sulphate (VS)(500 μg/day) treated animals. Nodules are identified with an arrow.

MDAY-D2 [7] = test: MDAY-D2 tumor growth in mice, three vanadyl compounds, Example 6B; format: in vivo; conditions: for effect on tumor growth, in words: 10 mg/ml s.c. daily; for animals that died: 10 mg/ml, 50 μl s.c. daily for 16 days, groups of five mice
From the text: as §4
In a separate experiment using the same animal model, the effect of orthovanadate, vanadyl sulphate and vanadyl hydroperoxide administration on tumor growth in vivo was examined. On Day 1, 20 mice were injected with 2×10^5 MDAY-D2 cell subcutaneously. The mice were divided into four groups of five mice. At day 5, the animals were injected subcutaneously with 50 μl of water alone or containing 10 mg/ml of orthovanadate, 10 mg/ml of vanadyl sulphate, or 10 mg/ml of vanadyl hydroperoxide. This treatment was continued daily for 16 days. At day 21, the mice were sacrificed and the tumors dissected and weighed.

[8] = 20 mM N-acetylcysteine for 20 min, FIG. 5

Compound: CCCCC/C=C\C/C=C\C/C=C\C/C=C\CCCC(=O)O [AA, arachidonic acid]
- expression of c-fos (fos): stimulated
- expression of c-jun (jun): stimulated

Compound: OO [H2 O2, hydrogen peroxide]
- stimulation of fos expression (fos; H2O2 for 30, 60 and 90 minutes, FIG. 3): stimulates
- cell toxicity of H2O2 alone (cells): small effect

Compound: CC(=O)N[C@@H](CS)C(=O)O [N-acetylcysteine]
- levels of fos expression in response to IL 1 (fos; [8]): reduce
- fos expression in response to factors such as IL 1 or arachidonic acid (fos): completely inhibit
- jun expression in response to factors such as IL 1 or arachidonic acid (jun): completely inhibit
- levels of superoxides and H2O2 in cells (superoxides and H2O2): indirectly reduce
- effect on slight toxic effects observed with orthovanadate alone (MDAY-D2 [1]; N-acetylcysteine co-administered): appeared to reduce the slight toxic effects
- tumor growth inhibition in vivo, in words (MDAY-D2 [1]; combination therapy): capable of reducing tumor growth to some extent
- levels of collagenase expression in response to IL 1 (collagenase [2]; [8]): reduce

Compound: CCCCCCCCCCCCCC(=O)OC1C(C)C2(O)C(C=C(CO)CC3(O)C(=O)C(C)=CC32)C2C(C)(C)C12OC(C)=O (centres unmarked) [PMA, reference compound]
- expression of c-fos (fos): stimulated
- release of 3H-AA (PLA2): induced
- expression of c-jun (jun): stimulated
- production of PGE2 (PGE2): induced
- production of collagenase (collagenase [3]): induced

Compound: COc1cc2c(c(OC)c1OC)-c1ccc(OC)c(=O)cc1[C@@H](NC(C)=O)CC2 [colchicine]
- killing of drug resistant cell lines by conventional chemotherapeutic agents [4]: not killed

Compound: c1ccc([I+]c2ccccc2)cc1 [diphenyl iodonium (DPI), diphenyl iodonium]
- IL 1 induction of fos (fos; Northern blot, FIG. 2): suppressed
- fos expression in response to factors such as IL 1 or arachidonic acid (fos): completely inhibit
- jun expression in response to factors such as IL 1 or arachidonic acid (jun): completely inhibit
- constitutive and IL 1 induced reactive oxygen intermediates [5]: completely inhibits
- IL 1 induced and constitutive collagenase expression (collagenase [2]; Northern blot, FIG. 2): suppress

Compound: COc1cccc2c1C(=O)c1c(O)c3c(c(O)c1C2=O)C[C@@](O)(C(=O)CO)C[C@@H]3O[C@H]1C[C@H](N)[C@H](O)[C@H](C)O1 [doxorubicin]
- killing of drug resistant cell lines by conventional chemotherapeutic agents [4]: not killed

Compound: N[C@@H](CCC(=O)N[C@@H](CS)C(=O)NCC(=O)O)C(=O)O [glutathione]
- anticancer activity (carcinogenesis): reported to have anticancer activity

Compound: O=S(=O)([O-])[O-].[O]=[V+2] [vanadyl sulphate]
- effectiveness in killing MDAY-D2 cells (MDAY-D2 cells): equally effective
- inhibition of chemically induced mammary carcinogenesis (mammary carcinogenesis): inhibit
- levels of metastases in liver (MDAY-D2 [6]; 500 μg/day, FIG. 16): did not have detectable levels of metastases
- effectiveness at preventing metastases (MDAY-D2 [6]; preliminary results, liver histology): effective at preventing metastases
- effect on tumor growth, in words (MDAY-D2 [7]): reduced tumors size in all of the animals; also recorded: less effective
- animals that died (MDAY-D2 [7]): One animal died

Compound: CC[C@]1(O)C[C@@H]2CN(CCc3c([nH]c4ccccc34)[C@@](C(=O)OC)(c3cc4c(cc3OC)N(C)[C@H]3[C@@](O)(C(=O)OC)[C@H](OC(C)=O)[C@]5(CC)C=CCN6CC[C@]43[C@@H]65)C2)C1 [vinblastine]
- killing of drug resistant cell lines by conventional chemotherapeutic agents [4]: not killed

Compound: O=C1O[C@H]([C@@H](O)CO)C(O)=C1O [vitamin C, ascorbic acid]
- anticancer activity (carcinogenesis): reported to have anticancer activity

Compound: Cc1c(C)c2c(c(C)c1O)CCC(C)(CCCC(C)CCCC(C)CCCC(C)C)O2 (stereo not drawn) [α-tocopherol]
- anticancer activity (carcinogenesis): reported to have anticancer activity

Compound: CC1=C(/C=C/C(C)=C/C=C/C(C)=C/C=C/C=C(C)/C=C/C=C(C)/C=C/C2=C(C)CCCC2(C)C)C(C)(C)CCC1 [β-carotene]
- anticancer activity (carcinogenesis): reported to have anticancer activity

Compound: vanadyl hydroperoxide
- effectiveness in killing MDAY-D2 cells (MDAY-D2 cells): equally effective
- effect on tumor growth, in words (MDAY-D2 [7]): too toxic to evaluate its efficacy
- animals that died (MDAY-D2 [7]): all five died

Compound: vitamin E
- anticancer activity (carcinogenesis): reported to have anticancer activity
